Patent US10921324B2, “Compositions and methods related to the methylation of histone H1.0 protein” (Aelan Cell Technologies, Inc., priority 2016, dated 2021)
Ends that are not written are not given here.

Test system: G9A methyltransferase
Test: In vitro methylation of unmodified H1.0 peptide with G9A, products by LC-MS
Type: biochemical
Procedure: In order to identify the precise sites of methylation by G9A and GLP methyltransferases on histone H1.0, in vitro methylation assays were performed and subsequently analyzed by Liquid Chromatography and High-resolution Mass Spectrometry (LC-MS) analysis. Methylation reactions were set up using either G9A methyltransferase (NEB, M0235S, Lot #0031201) or GLP methyltransferase (Cayman Chemical, 10755). The methyl donor in each reaction was unlabeled S-Adenosyl-L-Methionine (NEB, B9003S). The H1.0 substrate in each reaction was either unmodified H1.0 peptide labeled with biotin (ThermoFisher Scientific, Biotin-[…] (SEQ ID NO:69)), di-methylated H1.0 peptide (ThermoFisher Scientific, Biotin-[…]^(me2)PK (SEQ ID NO:70)), or full-length recombinant human H1.0 (NEB, M2501S). […]
For the Liquid Chromatography and High-resolution Mass Spectrometry (LC-MS) analysis, samples were prepared as described above and about 1 μg o the product was injected onto a Thermo Scientific Easy nLC system configured with a 10 cm×100 um trap column and a 25 cm×100 um ID resolving column. […] This ensured optimal full-scan data for quantification. […]
Protein identification was performed using Thermo Scientific Proteome Discoverer version 1.4 (including Sequest and Percolator algorithms) using RefSeqHuman sequence database. […] Protein quantification was performed using Pinpoint version 1.4 software. The Pinpoint quantification workflow included importing the Proteome Discoverer .msf files as spectral libraries. Identified peptides were subsequently quantified in MS .raw files using the Pinpoint peak finding, chromatographic alignment and area calculation algorithms.
In order to identify the precise locations of G9A methylation on unmodified H1.0 peptide ([…] (SEQ ID NO:36)), a methylation reaction was set up and the products identified by LC-MS. […] The methylation reaction was subsequently analyzed by LC-MS, and each spectral peak (corresponding to a peptide species in the final reaction) was identified and quantified using spectral counts. […]

Chain of G9A methyltransferase (Q9Z148 969-1263 limits assumed): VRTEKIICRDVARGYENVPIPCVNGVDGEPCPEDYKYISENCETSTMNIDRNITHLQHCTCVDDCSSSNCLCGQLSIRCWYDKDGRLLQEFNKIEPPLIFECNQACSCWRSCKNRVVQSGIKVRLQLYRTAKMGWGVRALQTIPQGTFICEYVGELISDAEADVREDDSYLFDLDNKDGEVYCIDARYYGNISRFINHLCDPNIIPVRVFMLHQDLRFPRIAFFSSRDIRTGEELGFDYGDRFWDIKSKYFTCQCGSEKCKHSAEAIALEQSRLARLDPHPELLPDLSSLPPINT

H1.0K180 dimethylated, % of all peptides (LC-MS spectral counts, 10U G9A, 3.2 mM S-Adenosyl-L-Methionine, 37° C. 1 hour): 99.9%
estimated methylation efficiency (dimethylation of K180 by G9A): about 99%
Sequence: AKPVKASKPKKAKPVKPK (not fully specified (N-terminus); listed as Homo sapiens) [unmethylated H1.0 peptide, unmodified H1.0 peptide substrate for in vitro methylation]
sites of methylation by G9A on the peptide (LC-MS): dimethylates lysine K180 but not other lysines (K166, K174, K175 or K177)
